Experimental data as given in patent US20130287721A1, “METHOD FOR COUNTERACTING AMMONIA MALODOR” (Firmenich SA, priority 2010, published 2013).

System: ammonia lateralization threshold
Experiment: Panel evaluation of the lateralization threshold (LT) of ammonia alone and in combination with a PRM
Assay type: in vivo, panellists
Parameters: LT of ammonia Panellist 1 Cond II / LT of ammonia Panellist 2 Cond II / LT of ammonia Panellist 3 Cond II: unit not given here
Details: for Ammonia LT Panellist 1 Cond II / Ammonia LT Panellist 2 Cond II / Ammonia LT Panellist 1 % Δ / Ammonia LT Panellist 2 % Δ / Ammonia LT Panellist 3 Cond II / Ammonia LT Panellist 3 % Δ: Table 3; for Ammonia LT Panellist 1 Cond II / Ammonia LT Panellist 2 Cond II / Ammonia LT Panellist 3 Cond II: ammonia stimulus combined with PRM stimulus (concentration of Table 2 in propylene glycol); for Ammonia LT Panellist 1 % Δ / Ammonia LT Panellist 2 % Δ / LT of ammonia Panellist 1 %Δ / LT of ammonia Panellist 2 %Δ / LT of ammonia Panellist 3 %Δ / Ammonia LT Panellist 3 % Δ: change of ammonia LT, Cond II (with PRM) vs Cond I (ammonia alone); for LT of ammonia Panellist 1 Cond II / LT of ammonia Panellist 2 Cond II / LT of ammonia Panellist 3 Cond II / LT of ammonia Panellist 1 %Δ / LT of ammonia Panellist 2 %Δ / LT of ammonia Panellist 3 %Δ: Table 4; for LT of ammonia Panellist 1 Cond II / LT of ammonia Panellist 2 Cond II / LT of ammonia Panellist 3 Cond II: ammonia stimulus combined with PRM stimulus
Description: An ammonia stimulus test range was prepared. To ensure a stable level of ammonia in each stimulus, the ammonia headspace was stabilized by combining appropriate concentrations of NH4Cl, NaOH and H2O instead of simply adding ammonia directly to a solvent. Different concentrations of ammonia were used to create a stimulus test range by utilizing the appropriate amount of each compound (see Table 1).
A stimulus was also prepared for each PRM which was intended to be combined with ammonia stimuli. As the PRMs differed in their potency and to ensure that each PRM stimulus had approximately the same potency, an abbreviated dose response curve was constructed for each PRM by having four panellists evaluate the intensity of five concentration levels of the PRM dissolved in propylene glycol in duplicate. Assessments were made relative to the reference of 170 ppm allyl heptanoate in propylene glycol, which intensity was set to 0. Based upon the average scores, a rough intensity match was made for each PRM utilizing one of the following criteria. If one of the tested concentration levels averaged at or near zero, this concentration level was selected. If the rating created any sort of reasonable curve, the equation of the curve was determined and solved for 0 to arrive at the PRM assessment level. If multiple concentration levels were equally distant form the match level, then the standard deviation across individuals was considered, as were the individual responses. In general, the PRM level was selected to be on average close to 0 with low variability, with two panellists saying the level was a bit too high and the other two panellists saying the level was a bit too low. The PRMs for which a stimulus was prepared are listed in Table 2 below, together with the concentration of the PRM in the stimulus.
Volunteers were screened for their ability to lateralize ammonia stimuli. For the screening, the experimenter measured the participant's lateralization threshold for ammonia using a two-alternative forced choice modified staircase procedure employing a four-in, two-down, one-up rule with a five reversal criterion, as described below, On each trial volunteers were presented with a pair of glass bottles with clean, custom-made nose pieces. One bottle contained ammonia at a particular level selected from Table 1 and the other bottle contained water only. Each bottle was applied to one nostril using the nose piece. The volunteers were asked to identify which bottle in each pair contained ammonia.
If the ammonia stimulus was correctly identified in four consecutive trials, the concentration was decreased by one level of Table 1 on the next trial. If an incorrect answer was provided, the concentration was increased by one level of Table 1. Location (left or right nostril) of the stimulus was randomized over presentations. Testing continued until one of the following occurred: • 1) Five reversals (correct decision followed by an incorrect decision or vice versa) were achieved; • 2) The volunteer gave a correct response twice in a row at the lowest level of Table 1; or • 3) The volunteer gave an incorrect response at the highest level of Table 1.
In the first circumstance, threshold values were then calculated by averaging the last four reversals. In the second circumstance, the LT was the lowest level. In the third circumstance, the LT could not be calculated. Volunteers were considered qualified to participate in the panel evaluation if their LT could be calculated (Circumstance 1).
The LT of ammonia, both alone and in combination with diverse PRM, was determined. A repeated-measures design was used, such that the LT with and without the addition of a PRM were both measured at the same time in one person by utilizing interwoven stimuli presentations. The LT for each PRM was measured by two to three panellists, the third panellists being included if the results of the first to panellists disagreed. […]

Row | Molecule | Ammonia LT Panellist 1 Cond II [ppm] | Ammonia LT Panellist 2 Cond II [ppm] | Ammonia LT Panellist 1 % Δ [%] | Ammonia LT Panellist 2 % Δ [%] | LT of ammonia Panellist 1 Cond II | LT of ammonia Panellist 2 Cond II | LT of ammonia Panellist 3 Cond II | LT of ammonia Panellist 1 %Δ [%] | LT of ammonia Panellist 2 %Δ [%] | LT of ammonia Panellist 3 %Δ [%] | Ammonia LT Panellist 3 Cond II [ppm] | Ammonia LT Panellist 3 % Δ [%]
1 | CCCC(C)C(=O)OCC (centres unmarked) [Applinate ®, Ethyl 2-methyl-pentanoate] | 2.3 | 55.1 | −62 | −23 |  |  |  |  |  |  |  | 
2 | Mixture of 3-(4-ethylphenyl)-2,2-dimethylpropanal and 3(2-ethylphenyl)-2,2-dimethylpropanal [Floralozone] |  |  |  |  | 2.0 | 6.3 | 3.5 | 895 | 214 | 77 |  | 
3 | CC(C)CCCC(C)CCO (centres unmarked) [3,7-Dimethyl-1-octanol] |  |  |  |  | 6.3 | 3.5 | 3.5 | 214 | 77 | 77 |  | 
4 | CC1=C(C=O)C(C)(C)CC=C1 [Safranal] | 22.9 | 2.2E−03 | 20 | 3088 |  |  |  |  |  |  |  | 
5 | CC(CC=O)CCCC(C)(C)O (centres unmarked) [Hydroxycitronellal] | 71.9 | 56.1 | 20 | −22 |  |  |  |  |  |  | 22.9 | 20
6 | O=C1CCCCCCCCCCCCCCO1 [Exaltolide ®, Pentadecanolide] | 6.1 | 71.9 | 213 | 214 |  |  |  |  |  |  |  | 
7 | CCCCCC1C(=O)CCC1CC(=O)OC (centres unmarked) [Hedione ®, Methyl dihydrojasmonate] | 7.5 | 22.9 | 23 | −90 |  |  |  |  |  |  | 6.1 | −68
8 | COC(=O)c1ccccc1 [Methyl benzoate] | 7.3 | 60 | 213 | 162 |  |  |  |  |  |  |  | 
9 | CC(C)=CCC/C(C)=C/CO [Geraniol] | 6.1 | 60.0 | −68 | −73 |  |  |  |  |  |  |  | 
10 | C=C(C)C1CC=C(C)C(=O)C1 (centres unmarked) [Carvone] | 19.1 | 225.5 | 214 | 214 |  |  |  |  |  |  |  | 
11 | C[C@H]1[C@@H]2CC(C[C@@]13C=CC(=O)CC3)C2(C)C (single isomer, unassigned; (+)) |  |  |  |  | 0.4 | 0.6 | 0.6 | 75 | 417 | 215 |  | 
12 | Mixture of (E)-4-(2,2,C-3,T-6-tetramethyl-R-1-cyclohexyl)-3-buten-2-one and (E)-4-(2,2,T-3,T-6-tetramethyl-R-1-cyclohexyl)-3-buten-2-one [Myrrhone ®] |  |  |  |  | 11.1 | 3.5 | 3.5 | 77 | 212 | 77 |  | 
13 | CC(OC=O)C1CCCC(C)(C)C1 (centres unmarked) [Aphermate] | 6.1 | 71.9 | −68 | −59 |  |  |  |  |  |  |  | 
14 | CCOC(=O)C1=C(C)C=CCC1(C)C [Ethyl 2,6,6-trimethyl-1,3-cyclohexadiene-1-carboxylate] |  |  |  |  | 0.6 | 0.6 | 0.2 | 786 | 215 | 200 |  | 
15 | CCOC(=O)C1CCC(C(=O)OCC)CC1 (centres unmarked) [Fructalate ®, Diethyl 1,4-cyclohexane dicarboxylate] | 56.3 | 188.3 | 194 | 214 |  |  |  |  |  |  |  | 
16 | Cedrenol | 2.3 | 60 | −68 | 162 |  |  |  |  |  |  | 2.3 | −96
17 | CC(C)[C@H]1CC[C@@H](CO)CC1 [Mayol ®, cis-7-P-menthanol] |  |  |  |  | 0.6 | 3.5 | 3.5 | 800 | 212 | 212 |  | 
18 | C=CCOC(=O)COC1CCCCC1 [Cyclogalbanate, Allyl (cyclohexyloxy)-acetate] |  |  |  |  | 2.0 | 6.3 | 3.5 | 216 | 453 | 212 |  | 
19 | C/C=C/C(=O)C1C(C)C=CCC1(C)C (centres unmarked) [Delta damascone ®, Delta damascone] | 7.3 | 225.5 | −68 | 214 |  |  |  |  |  |  | 7.3 | −96
20 | CCC1CC(C)(C)CCC1=O (centres unmarked) [2-Ethyl-4,4-dimethyl-1-cyclohexanone] |  |  |  |  | 3.5 | 2.0 | 2.0 | 212 | 471 | 217 |  | 
21 | C=C(CC(C)CO)C1CC=C(C)C1(C)C (centres unmarked) [2-Methyl-4-(2,2,3-trimethyl-3-cyclopenten-1-yl)-4-penten-1-ol] |  |  |  |  | 3.5 | 3.5 | 2.0 | 212 | 212 | 852 |  | 
